This passage reports inhibition results from patent US7410976B2, “Spirochromanone derivatives” (Merck & Co., Inc., priority 2005, dated 2008).

One experiment addresses human ACC2 (Homo sapiens, UniProt O00763). Nature of the experiment: Acetyl CoA carboxylase (ACC) activity inhibition test, human ACC2. The class given is biochemical. Particulars: 1 μmol/liter compound; control: DMSO well without test compound; read-out: Inhibition (%) by 1 μmol/liter Chemical, human ACC2. The procedure: (§1) A. Pharmacological Test Example (Acetyl CoA Carboxylase (ACC) Activity Inhibition Test)
(§2) Concretely, 0.8 μl of the diluted test compound is added to each well of 96-well assay plate (Perkin Elmer Opti Plate), then 40 μl of a substrate solution (50 mM Hepes sodium (pH 7.5), 2 mM DTT, 10 mM ATP, 500 μM acetyl CoA, 0.17 mM NaH[^14C]O3 (58 mCi/mmol, by Amersham), 8 mM NaHCO3) is added to each well, and 40 μL of an enzyme solution (1 to 2 nM human ACC1 or human ACC2, 50 mM Hepes sodium (pH 7.5), 2 mM DTT, 40 mM MgCl2, 40 mM tripotassium citrate 1 mg/ml fetal bovine serum albumin) is added thereto. Then, the upper side of the plate is sealed up, and the plate is incubated with gently stirring at 37° C. for 40 minutes. Next, 20 μl of 1N HCl is added to each well to stop the enzyme reaction, and the assay plate is stirred overnight to remove the unreacted NaH[^14C]O3. Next, 100 μl of a scintillator (Perkin Elmer's Microscinti 40) is added to each well and the plate is stirred, then the radioactivity of the fixed [^14C] is counted using a microplate scintillation counter (Perlin Elmer's Topcount), the radioactivity of which represents the enzyme activity in each well. The human ACC1 and human ACC2 enzyme-inhibition activities of the test compounds are calculated, based on the radioactivity of the well added by DMSO without test compound as a control.

The target of another experiment is human ACC1 (Homo sapiens, UniProt Q13085). Nature of the experiment: Acetyl CoA carboxylase (ACC) activity inhibition test, human ACC1. The format is biochemical. Particulars: 1 μmol/liter compound; control: DMSO well without test compound; read-out: Inhibition (%) by 1 μmol/liter Chemical, human ACC1. The procedure:
as §1, §2

Where a name gives a salt, the structure may show the parent alone.

Chain of human ACC2 (O00763 whole entry): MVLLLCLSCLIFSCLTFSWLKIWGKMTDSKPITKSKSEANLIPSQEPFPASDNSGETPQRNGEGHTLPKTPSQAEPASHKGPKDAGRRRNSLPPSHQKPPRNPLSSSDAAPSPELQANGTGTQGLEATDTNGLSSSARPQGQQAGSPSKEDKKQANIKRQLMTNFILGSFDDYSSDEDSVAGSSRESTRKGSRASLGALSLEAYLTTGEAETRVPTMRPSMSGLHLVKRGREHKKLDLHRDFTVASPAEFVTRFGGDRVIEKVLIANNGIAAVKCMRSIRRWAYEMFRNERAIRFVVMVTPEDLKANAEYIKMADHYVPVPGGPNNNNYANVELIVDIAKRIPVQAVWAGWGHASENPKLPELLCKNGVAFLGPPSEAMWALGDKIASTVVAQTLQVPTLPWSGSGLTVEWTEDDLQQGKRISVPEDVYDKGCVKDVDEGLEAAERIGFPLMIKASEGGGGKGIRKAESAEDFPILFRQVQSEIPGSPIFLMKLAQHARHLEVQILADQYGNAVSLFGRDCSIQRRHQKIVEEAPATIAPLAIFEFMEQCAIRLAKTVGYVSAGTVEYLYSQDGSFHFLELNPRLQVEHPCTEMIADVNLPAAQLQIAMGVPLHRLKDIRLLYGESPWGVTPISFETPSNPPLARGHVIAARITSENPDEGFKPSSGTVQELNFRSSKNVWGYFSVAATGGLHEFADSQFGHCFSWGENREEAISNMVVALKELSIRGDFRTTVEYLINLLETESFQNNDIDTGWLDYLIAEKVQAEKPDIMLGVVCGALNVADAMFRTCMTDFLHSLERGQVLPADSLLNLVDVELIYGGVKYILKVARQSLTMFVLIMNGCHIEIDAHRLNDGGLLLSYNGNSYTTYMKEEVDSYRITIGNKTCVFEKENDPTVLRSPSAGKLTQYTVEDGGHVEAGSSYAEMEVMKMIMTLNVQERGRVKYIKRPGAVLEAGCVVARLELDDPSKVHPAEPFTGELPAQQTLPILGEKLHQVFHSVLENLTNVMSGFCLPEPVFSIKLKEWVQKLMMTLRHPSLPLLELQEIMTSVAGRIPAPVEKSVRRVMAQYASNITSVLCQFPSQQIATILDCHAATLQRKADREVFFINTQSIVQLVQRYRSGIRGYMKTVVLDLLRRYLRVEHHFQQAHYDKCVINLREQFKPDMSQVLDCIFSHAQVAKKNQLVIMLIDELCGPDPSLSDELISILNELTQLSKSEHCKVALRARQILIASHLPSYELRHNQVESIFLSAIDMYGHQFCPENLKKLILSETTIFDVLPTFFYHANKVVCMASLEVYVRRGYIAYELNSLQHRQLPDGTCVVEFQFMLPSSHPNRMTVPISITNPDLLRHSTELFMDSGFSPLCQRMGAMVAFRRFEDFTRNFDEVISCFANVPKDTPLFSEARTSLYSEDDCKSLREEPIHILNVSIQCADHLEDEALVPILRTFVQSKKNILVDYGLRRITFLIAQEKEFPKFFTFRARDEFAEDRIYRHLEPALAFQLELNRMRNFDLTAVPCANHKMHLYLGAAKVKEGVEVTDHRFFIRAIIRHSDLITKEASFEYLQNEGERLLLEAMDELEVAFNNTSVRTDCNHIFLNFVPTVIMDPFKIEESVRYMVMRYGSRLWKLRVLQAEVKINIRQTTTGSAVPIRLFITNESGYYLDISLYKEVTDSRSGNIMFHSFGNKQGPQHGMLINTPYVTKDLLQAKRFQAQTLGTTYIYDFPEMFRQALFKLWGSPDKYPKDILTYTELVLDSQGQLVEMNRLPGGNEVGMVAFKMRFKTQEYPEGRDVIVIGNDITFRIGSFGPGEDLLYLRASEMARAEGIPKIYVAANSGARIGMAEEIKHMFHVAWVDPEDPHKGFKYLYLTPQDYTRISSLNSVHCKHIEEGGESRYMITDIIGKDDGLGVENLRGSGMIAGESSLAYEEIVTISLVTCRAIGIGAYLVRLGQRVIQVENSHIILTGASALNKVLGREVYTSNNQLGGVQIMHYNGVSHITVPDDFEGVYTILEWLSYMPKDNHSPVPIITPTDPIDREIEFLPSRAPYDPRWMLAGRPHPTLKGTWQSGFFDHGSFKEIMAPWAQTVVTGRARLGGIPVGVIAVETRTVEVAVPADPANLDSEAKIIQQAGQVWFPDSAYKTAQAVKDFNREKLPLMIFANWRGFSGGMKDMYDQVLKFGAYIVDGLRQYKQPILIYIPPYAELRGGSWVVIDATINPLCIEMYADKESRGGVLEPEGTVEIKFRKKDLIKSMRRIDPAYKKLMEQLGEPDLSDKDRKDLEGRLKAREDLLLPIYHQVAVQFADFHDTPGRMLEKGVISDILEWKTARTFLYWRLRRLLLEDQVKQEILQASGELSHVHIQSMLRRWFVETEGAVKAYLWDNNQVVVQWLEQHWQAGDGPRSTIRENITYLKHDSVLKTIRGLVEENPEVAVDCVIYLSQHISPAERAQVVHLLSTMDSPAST

In the case of `COc1cc(C(=O)N2CCC3(CC2)CC(=O)c2cc(NC(C)=O)ccc2O3)nc2ccccc12` [Example 2, N-{1′-[(4-methoxyquinolin-2-yl)carbonyl]-4-oxospiro[chroman-2,4′-piperidin]-6-yl}acetamide hydrochloride], the inhibition at 1 µM on human ACC2 was 85%; on human ACC1 it was 82%.

As to `COc1cc(C(=O)N2CCC3(CC2)CC(=O)c2cc(NC(C)=O)ccc2O3)nc2c(OC)cccc12` [Example 3, N-{1′-[(4,8-dimethoxyquinolin-2-yl)carbonyl]-4-oxospiro[chroman-2,4′-piperidin]-6-yl}acetamide], the figures for the inhibition at 1 µM on human ACC2 and on human ACC1 were 98% and 100%, respectively.

With `COc1cc(C(=O)N2CCC3(CC2)CC(=O)c2ccccc2O3)nc2c(OC)cccc12` [Example 4, 1′-[(4,8-dimethoxyquinolin-2-yl)carbonyl]spiro[chroman-2,4′-piperidin]-4-one], the inhibition at 1 µM on human ACC2 was determined as 96%; on human ACC1, 93%.

For the compound `COc1cc(C(=O)N2CCC3(CC2)CC(=O)c2cc(N)ccc2O3)nc2c(OC)cccc12` [Example 5, 6-amino-1′-[(4,8-dimethoxyquinolin-2-yl)carbonyl]spiro[chroman-2,4′-piperidin]-4-one], the inhibition at 1 µM on human ACC2 and at human ACC1 was 97% in each case.

In the case of `COc1cc(C(=O)N2CCC3(CC2)CC(=O)c2cc(Nc4ccnn4C)ccc2O3)nc2c(OC)cccc12` [Example 10, 1′-[(4,8-dimethoxyquinolin-2-yl)carbonyl]-6-[(1-methyl-1H-pyrazol-5-yl)amino]spiro[chroman-2,4′-piperidin]-4-one], the inhibition at 1 µM was 99% at human ACC2 and 100% at human ACC1.

Consider `COc1cc(C(=O)N2CCC3(CC2)CC(=O)c2cc(-c4nnn[nH]4)ccc2O3)nc2c(OC)cccc12` [Example 18, 1′-[(4,8-dimethoxyquinolin-2-yl)carbonyl]-6-(1H-tetrazol-5-yl)spiro[chroman-2,4′-piperidin]-4-one sodium salt], for which the inhibition at 1 µM at human ACC2 was determined as 99%; at human ACC1, 97%.

On to `CCOc1cc(C(=O)N2CCC3(CC2)CC(=O)c2cc(-c4nnn[nH]4)ccc2O3)nc2c(C3CC3)nccc12` [Example 21, 1′-[(8-cyclopropyl-4-ethoxy-1.7-naphthyridin-2-yl)carbonyl]-6-(1H-tetrazol-5-yl)spiro[chroman-2,4′-piperidin]-4-one], for which the inhibition at 1 µM worked out at 97% at human ACC2 and 99% at human ACC1.

Regarding `COc1cc(C(=O)N2CCC3(CC2)CC(=O)c2cc(-c4nc[nH]n4)ccc2O3)nc2c(OC)cccc12` [Example 27, 1′-[(4,8-dimethoxyquinolin-2-yl)carbonyl]-6-(1H-1,2,4-triazol-3-yl)-spiro[chroman-2,4′-piperidin]-4-one], the results for the inhibition at 1 µM on human ACC2 and on human ACC1 were 100% and 101%, respectively.
